Reference: ChEMBL document CHEMBL1201861, “Genomics of Drug Sensitity in Cancer screening data, Wellcome Trust Sanger Institute”
pIC50: −log10 of the molar value.

Columns and labels:
Experiment in all cases: cells
Conditions in all cases: Homo sapiens
[1] = system: COLO-680N; assay type: functional, cell-based;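 further: cell viability assay used to measure inhibition of COLO-680N cell growth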
Description: SANGER: Inhibition of human COLO-680N cell growth in a cell viability assay.

[2] = system: MDA-MB-415; assay type: functional, cell-based
[3] = system: Capan-2; assay type: functional, cell-based;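 further: Capan-2 cell growth inhibition, read out with a viability assay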
Description: SANGER: Inhibition of human Capan-2 cell growth in a cell viability assay.

[4] = system: NB17; assay type: functional, cell-based;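 further: growth inhibition of NB17 cells, read out with a cell viability assay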
Description: SANGER: Inhibition of human NB17 cell growth in a cell viability assay.

[5] = system: HLE; assay type: functional, cell-based;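 further: growth inhibition of human HLE cells, read out by a cell viability assay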
Description: SANGER: Inhibition of human HLE cell growth in a cell viability assay.

[6] = system: NCI-H520; assay type: functional, cell-based;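 further: growth inhibition of NCI-H520 cells, measured by a cell viability assay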
Description: SANGER: Inhibition of human NCI-H520 cell growth in a cell viability assay.

[7] = system: HCC70; assay type: functional, cell-based;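 further: cell viability assay measuring how strongly the compound suppresses proliferation of HCC70 cells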
Description: SANGER: Inhibition of human HCC70 cell growth in a cell viability assay.

[8] = system: LK-2; assay type: functional, cell-based;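 further: growth inhibition of LK-2 cells, read out with a viability assay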
Description: SANGER: Inhibition of human LK-2 cell growth in a cell viability assay.

[9] = system: ESS-1; assay type: functional, cell-based;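 further: growth inhibition of human ESS-1 cells, read out by a cell viability assay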
Description: SANGER: Inhibition of human ESS-1 cell growth in a cell viability assay.

[10] = system: HCC1806; assay type: functional, cell-based;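 further: growth inhibition of the cancer cell line, determined with a cell viability assay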
Description: SANGER: Inhibition of human HCC1806 cell growth in a cell viability assay.

[11] = system: ASPC1; assay type: functional, cell-based;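 further: growth inhibition of AsPC-1 cells, read out with a cell viability assay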
Description: SANGER: Inhibition of human AsPC-1 cell growth in a cell viability assay.

[12] = system: SW948; assay type: functional, cell-based;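 further: growth inhibition of SW948 cells, read out with a cell viability assay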
Description: SANGER: Inhibition of human SW948 cell growth in a cell viability assay.

[13] = system: 8305C; assay type: functional, cell-based
Description: SANGER: Inhibition of human 8305C cell growth in a cell viability assay.

[14] = system: SW1783; assay type: functional, cell-based;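 further: cell growth inhibition measured with a viability assay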
Description: SANGER: Inhibition of human SW1783 cell growth in a cell viability assay.

[15] = system: FaDu; assay type: functional, cell-based;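 further: cell viability readout of growth inhibition in FaDu cells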
Description: SANGER: Inhibition of human FADU cell growth in a cell viability assay.

[16] = system: CAMA-1; assay type: functional, cell-based;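 further: growth inhibition of CAMA-1 cells, read out with a cell viability assay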
Description: SANGER: Inhibition of human CAMA-1 cell growth in a cell viability assay.

[17] = system: 786-0; assay type: functional, cell-based
Description: SANGER: Inhibition of human 786-0 cell growth in a cell viability assay.

[18] = system: TGW; assay type: functional, cell-based;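 further: growth inhibition of human TGW cells, read out with a cell viability assay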
Description: SANGER: Inhibition of human TGW cell growth in a cell viability assay.

[19] = system: FTC-133; assay type: functional, cell-based
[20] = system: VM-CUB-1; assay type: functional, cell-based;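 further: cell viability assay measuring growth inhibition of the human VM-CUB-1 cell line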
Description: SANGER: Inhibition of human VM-CUB-1 cell growth in a cell viability assay.

[21] = system: DBTRG-05MG; assay type: functional, cell-based;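 further: cell viability assay measuring growth inhibition of human DBTRG-05MG cells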
Description: SANGER: Inhibition of human DBTRG-05MG cell growth in a cell viability assay.

[22] = system: MFE-280; assay type: functional, cell-based;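 further: growth inhibition of MFE-280 cells, determined with a cell viability readout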
Description: SANGER: Inhibition of human MFE-280 cell growth in a cell viability assay.

[23] = system: RPMI-7951; assay type: functional, cell-based
Description: SANGER: Inhibition of human RPMI-7951 cell growth in a cell viability assay.

[24] = system: HGC-27; assay type: functional, cell-based;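 further: growth inhibition of human HGC-27 cells, read out in a cell viability assay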
Description: SANGER: Inhibition of human HGC-27 cell growth in a cell viability assay.

[25] = system: EGI-1; assay type: functional, cell-based;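 further: cell viability readout used to gauge growth inhibition of EGI-1 cells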
Description: SANGER: Inhibition of human EGI-1 cell growth in a cell viability assay.

[26] = system: D-392MG; assay type: functional, cell-based
[27] = system: SW1573; assay type: functional, cell-based;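 further: growth inhibition of SW1573 cells, read out with a cell viability assay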
Description: SANGER: Inhibition of human SW1573 cell growth in a cell viability assay.

[28] = system: LU-99A; assay type: functional, cell-based;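 further: growth inhibition of LU-99A cells, read out with a cell viability assay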
Description: SANGER: Inhibition of human LU-99A cell growth in a cell viability assay.

[29] = system: HuCCT-1; assay type: functional, cell-based, HuCCT1;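 further: growth inhibition of HuCCT-1 cells, read out by a cell viability assay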
Description: SANGER: Inhibition of human HuCCT1 cell growth in a cell viability assay.

[30] = system: P12-Ichikawa; assay type: functional, cell-based
[31] = system: OAW-28; assay type: functional, cell-based;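 further: growth inhibition of OAW-28 cells, read out with a cell viability assay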
Description: SANGER: Inhibition of human OAW-28 cell growth in a cell viability assay.

[32] = system: COLO-678; assay type: functional, cell-based
Description: SANGER: Inhibition of human COLO-678 cell growth in a cell viability assay.

[33] = system: CAL-72; assay type: functional, cell-based;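 further: cell viability assay measuring inhibition of proliferation in the CAL-72 cell line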
Description: SANGER: Inhibition of human CAL-72 cell growth in a cell viability assay.

[34] = system: NCI-H1693; assay type: functional, cell-based;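 further: growth inhibition of the human cell line, read out with a cell viability assay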
Description: SANGER: Inhibition of human NCI-H1693 cell growth in a cell viability assay.

[35] = system: NCI-H358; assay type: functional, cell-based;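 further: growth inhibition of NCI-H358 human cells, read out with a cell viability assay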
Description: SANGER: Inhibition of human NCI-H358 cell growth in a cell viability assay.

[36] = system: HT1197; assay type: functional, cell-based, HT-1197
Description: SANGER: Inhibition of human HT-1197 cell growth in a cell viability assay.

[37] = system: SAS; assay type: functional, cell-based;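 further: growth inhibition of SAS cells, read out with a cell viability assay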
Description: SANGER: Inhibition of human SAS cell growth in a cell viability assay.

[38] = system: SCC-25; assay type: functional, cell-based;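 further: growth inhibition of SCC-25 cells, measured with a cell viability assay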
Description: SANGER: Inhibition of human SCC-25 cell growth in a cell viability assay.

[39] = system: NCI-H2405; assay type: functional, cell-based;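 further: growth inhibition of the human cell line, read out with a cell viability assay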
Description: SANGER: Inhibition of human NCI-H2405 cell growth in a cell viability assay.

[40] = system: NCI-H1793; assay type: functional, cell-based;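 further: cell growth inhibition, read out by a cell viability assay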
Description: SANGER: Inhibition of human NCI-H1793 cell growth in a cell viability assay.

[41] = system: RCM-1; assay type: functional, cell-based;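 further: growth inhibition of the RCM-1 line, determined with a cell viability readout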
Description: SANGER: Inhibition of human RCM-1 cell growth in a cell viability assay.

[42] = system: NCI-H2122; assay type: functional, cell-based;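 further: growth inhibition of the cells, read out with a cell viability assay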
Description: SANGER: Inhibition of human NCI-H2122 cell growth in a cell viability assay.

[43] = system: CAL-120; assay type: functional, cell-based;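 further: cell growth inhibition, read out as cell viability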
Description: SANGER: Inhibition of human CAL-120 cell growth in a cell viability assay.

[44] = system: HCC1954; assay type: functional, cell-based;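 further: growth inhibition of human HCC1954 cells, read out with a cell viability assay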
Description: SANGER: Inhibition of human HCC1954 cell growth in a cell viability assay.

[45] = system: MDA-MB-453; assay type: functional, cell-based
Description: SANGER: Inhibition of human MDA-MB-453 cell growth in a cell viability assay.

[46] = system: KYSE-520 cell line; assay type: functional, cell-based;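 further: growth inhibition of human KYSE-520 cells, read out with a viability assay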
Description: SANGER: Inhibition of human KYSE-520 cell growth in a cell viability assay.

[47] = system: RVH-421; assay type: functional, cell-based
Description: SANGER: Inhibition of human RVH-421 cell growth in a cell viability assay.

[48] = system: NCI-H596; assay type: functional, cell-based;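 further: growth inhibition of NCI-H596 cells, read out with a cell viability assay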
Description: SANGER: Inhibition of human NCI-H596 cell growth in a cell viability assay.

[49] = system: T84; assay type: functional, cell-based;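 further: growth inhibition measured with a cell viability readout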
Description: SANGER: Inhibition of human T84 cell growth in a cell viability assay.

[50] = system: HMV-2 cell line; assay type: functional, cell-based;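 further: growth inhibition of HMV-II cells, read out with a cell viability assay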
Description: SANGER: Inhibition of human HMV-II cell growth in a cell viability assay.

Cn1c(=O)n(-c2ccc(C(C)(C)C#N)cc2)c2c3cc(-c4cnc5ccccc5c4)ccc3ncc21 [DACTOLISIB]
pIC50 [1]: 6.96
pIC50 [2]: 6.75
pIC50 [3]: < 5.70
pIC50 [4]: 6.14
pIC50 [5]: 7.27
pIC50 [6]: 7.08
pIC50 [7]: 6.39
pIC50 [8]: 7.11
pIC50 [9]: 6.87
pIC50 [10]: 6.78
pIC50 [11]: 7.52
pIC50 [12]: < 5.70
pIC50 [13]: 7.38
pIC50 [14]: 6.96
pIC50 [15]: 6.57
pIC50 [16]: 8.01
pIC50 [17]: 7.65
pIC50 [18]: 6.12
pIC50 [19]: 7.60
pIC50 [20]: 7.48
pIC50 [21]: 6.70
pIC50 [22]: 8.00
pIC50 [23]: 7.71
pIC50 [24]: 7.74
pIC50 [25]: 7.78
pIC50 [26]: 6.97
pIC50 [27]: 6.96
pIC50 [28]: 6.93
pIC50 [29]: 7.04
pIC50 [30]: 7.82
pIC50 [31]: < 5.70
pIC50 [32]: < 5.70
pIC50 [33]: 6.53
pIC50 [34]: 6.87
pIC50 [35]: 5.71
pIC50 [36]: 6.62
pIC50 [37]: 6.19
pIC50 [38]: 7.05
pIC50 [39]: 7.26
pIC50 [40]: 7.89
pIC50 [41]: 6.30
pIC50 [42]: 6.70
pIC50 [43]: 7.46
pIC50 [44]: 6.29
pIC50 [45]: < 5.70
pIC50 [46]: 6.60
pIC50 [47]: 7.27
pIC50 [48]: 6.64
pIC50 [49]: < 5.70

CC(=O)c1c(C)c2cnc(Nc3ccc(N4CCNCC4)cn3)nc2n(C2CCCC2)c1=O [PALBOCICLIB]
pIC50 [1]: < 5.40
pIC50 [2]: < 5.40
pIC50 [3]: < 5.40
pIC50 [4]: < 5.40
pIC50 [5]: < 5.40
pIC50 [6]: 6.13
pIC50 [7]: < 5.40
pIC50 [8]: < 5.40
pIC50 [9]: < 5.40
pIC50 [10]: < 5.40
pIC50 [11]: 6.60
pIC50 [12]: < 5.40
pIC50 [13]: < 5.40
pIC50 [14]: < 5.40
pIC50 [15]: < 5.40
pIC50 [16]: 6.08
pIC50 [17]: 5.67
pIC50 [18]: 5.95
pIC50 [19]: < 5.40
pIC50 [20]: < 5.40
pIC50 [21]: < 5.40
pIC50 [22]: < 5.40
pIC50 [23]: 5.56
pIC50 [24]: 6.25
pIC50 [25]: 5.61
pIC50 [26]: < 5.40
pIC50 [27]: < 5.40
pIC50 [28]: < 5.40
pIC50 [29]: < 5.40
pIC50 [30]: 7.02
pIC50 [31]: < 5.40
pIC50 [32]: < 5.40
pIC50 [33]: < 5.40
pIC50 [34]: < 5.40
pIC50 [36]: < 5.40
pIC50 [37]: 5.66
pIC50 [38]: < 5.40
pIC50 [39]: < 5.40
pIC50 [40]: < 5.40
pIC50 [41]: < 5.40
pIC50 [42]: < 5.40
pIC50 [43]: < 5.40
pIC50 [44]: < 5.40
pIC50 [45]: < 5.40
pIC50 [46]: < 5.40
pIC50 [47]: < 5.40
pIC50 [48]: < 5.40
pIC50 [49]: < 5.40

CCCS(=O)(=O)Nc1ccc(F)c(C(=O)c2c[nH]c3ncc(Cl)cc23)c1F [PLX-4720]
pIC50 [1]: < 5.00
pIC50 [2]: < 5.00
pIC50 [3]: < 5.00
pIC50 [4]: < 5.00
pIC50 [50]: < 5.00
pIC50 [5]: < 5.00
pIC50 [6]: < 5.00
pIC50 [7]: < 5.00
pIC50 [8]: < 5.00
pIC50 [9]: < 5.00
pIC50 [10]: 5.17
pIC50 [11]: < 5.00
pIC50 [12]: < 5.00
pIC50 [13]: 5.29
pIC50 [14]: < 5.00
pIC50 [15]: < 5.00
pIC50 [16]: < 5.00
pIC50 [17]: < 5.00
pIC50 [18]: < 5.00
pIC50 [19]: < 5.00
pIC50 [20]: < 5.00
pIC50 [21]: 5.34
pIC50 [22]: < 5.00
pIC50 [23]: 5.24
pIC50 [24]: < 5.00
pIC50 [25]: < 5.00
pIC50 [26]: < 5.00
pIC50 [27]: < 5.00
pIC50 [28]: < 5.00
pIC50 [29]: < 5.00
pIC50 [30]: < 5.00
pIC50 [31]: < 5.00
pIC50 [32]: < 5.00
pIC50 [33]: 5.19
pIC50 [34]: < 5.00
pIC50 [35]: 5.53
pIC50 [36]: < 5.00
pIC50 [37]: < 5.00
pIC50 [38]: < 5.00
pIC50 [39]: < 5.00
pIC50 [40]: < 5.00
pIC50 [41]: < 5.00
pIC50 [42]: < 5.00
pIC50 [43]: < 5.00
pIC50 [44]: < 5.00
pIC50 [45]: < 5.00
pIC50 [46]: < 5.00
pIC50 [47]: 6.06
pIC50 [48]: < 5.00
pIC50 [49]: < 5.00
